According to patent US20130316958A1 (University of Southern California, priority 2010, published 2013):

Key:
NF-κB = NF-κB luciferase reporter assay; type: cell-based; details: NIH3T3 cells, 48 hr post-transfection
Source text: To determine the effects of the interactions of vFLIP with FADD, IKKαβγ, and 14-3-3σ on anti-autophagy activity, NIH3T3 cells stably expressing various vFLIP mutants were constructed: m14-3-3σ, which lacks 14-3-3σ-binding; mTRAF2, which lacks TRAF2-binding (Guasparri et al. (2006) EMBO Rep. 7:114-119); 67AAA and 58AAA, which have reduced NF-κB activation (Matta and Chaudhary (2004) Proc. Natl. Acad. Sci. USA 101:9399-9404); and mFADD, which lacks FADD-binding (Yang et al. (2005) Mol. Cell. 20:939-949). These cells were treated with either cyclohexamide (CHX) alone or CHX and TNF-α for 12 hr or with 2 μM rapamycin for 3 hr. Propidium iodide (PI) staining and flow cytometry analysis were performed to determine apoptosis levels. Alternatively, NIH3T3 cells containing vector, KSHV vFLIP, or its mutants were transfected with an NF-κB-luciferase reporter construct and a control renilla luciferase plasmid, pRL-SV40 (Promega). At 48 hr post-transfection, luciferase activity was measured with a luminometer using a dual luciferase assay kit (Promega) and normalized with renilla luciferase activity to determine transfection efficiency. GFP-LC3 puncta were detected using an inverted fluorescence microscope and the autophagy levels quantified as means (±SD) of the results from three independent experiments.

[1] = tested on: HCT116, HaCat, and MEF cells; experiment: GFP-LC3 autophagy with KSHV vFLIP in multiple cell types; type: cell-based; details: 2 μM rapamycin 3 hr
Description: During autophagy, an LC3 precursor (LC3-I) undergoes cleavage and lipidation to yield its processed form (LC3-II) (Mizushima et al. (2008) Nature 451:1069-1075). Immunoblotting was performed with an antibody against LC3 to further measure autophagic activity. NIH3T3-Vector, NIH3T3-KSHV-vFLIP, and NIH3T3-MCV-159L cells were treated with Hank's solution for 4 hr. Polypeptides were resolved by SDS-polyacrylamide gel electrophoresis (PAGE) and transferred to a PVDF membrane (Bio-Rad). […] The proteins were visualized by a chemiluminescence reagent (Pierce) and detected by a Fuji Phosphor Imager. A large portion of LC3-I was processed to LC3-II in NIH3T3-vector cells under starvation conditions, while little or no processed LC3-II was detected in NIH3T3-KSHV-vFLIP, NIH3T3-MCV-159L, NIH3T3-HVS-vFLIP, and NIH3T3-cFLIPs cells. Finally, the ability of FLIP to block autophagy in multiple cell types was evaluated. At 12-16 hr post-transfection with GFP-LC3, HCT116, HaCat, and MEF cells containing vector or KSHV vFLIP were treated with 2 μM rapamycin for 3 hr. Subsequently, GFP-LC3 was detected using an inverted fluorescence microscope and the autophagy levels quantified as means (±SD) of the results from three independent experiments.

Atg3 = target: T1, Atg3 (Homo sapiens, UniProt Q9NT62); experiment: Co-immunoprecipitation of FLIP with Atg3 in HEK293T cells; type: binding; details: endogenously and exogenously expressed Atg3
T1 construct: GFP (alternative construct GFP-Atg3, not on the same molecule as GST); expressed in transfected cells; host or cells: HEK293T
T1 sequence (Q9NT62 whole entry): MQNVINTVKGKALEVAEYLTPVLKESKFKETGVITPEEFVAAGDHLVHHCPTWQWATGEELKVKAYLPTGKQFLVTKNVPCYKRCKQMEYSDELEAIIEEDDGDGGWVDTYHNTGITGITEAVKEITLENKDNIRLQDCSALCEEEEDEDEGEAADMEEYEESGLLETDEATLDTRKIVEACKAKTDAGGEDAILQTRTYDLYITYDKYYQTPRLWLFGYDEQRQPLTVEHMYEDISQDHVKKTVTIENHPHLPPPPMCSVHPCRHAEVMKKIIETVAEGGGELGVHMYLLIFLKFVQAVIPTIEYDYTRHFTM
Description: The ability of FLIP to bind to Atg3 was evaluated by co-immunoprecipitation assay. HEK293T cells were transfected with Flag-vFLIP and/or GFP-Atg3 or Flag-vFLIP and/or GST-Atg3, and at 48 hr post-transfection, cells were harvested and lysed in an NP40 buffer supplemented with complete protease inhibitor cocktail (Roche). After pre-clearing with protein A/G agarose beads for 1 hr at 4° C., whole-cell lysates were used for immunoprecipitation with αFlag, αGFP, or GST. Generally, 1-4 μg of the antibody was added to 1 ml of the cell lysate and incubated at 4° C. for 8 to 12 hr. The immunoprecipitates were then washed extensively with a lysis buffer and eluted by boiling them with an SDS loading buffer for 5 min. Following immunoprecipitation, samples were treated to immunoblot using αAtg3 (1:500) (Novus).

Question: Which NF-κB activation (NF-κB) does the source give for “KSHV vFLIP: viral FLICE-like inhibitor protein of Kaposi's sarcoma-associated herpesvirus, expressed in cells” here?
Answer: carried out NF-κB activation

Question: And the “block of autophagy in multiple cell types” value [1]?
Answer: efficiently blocked autophagy in a number of cell types

Question: What about the “interaction with Atg3 (co-immunoprecipitation)” value (Atg3) of the same substance?
Answer: strongly interacted with endogenously and exogenously expressed Atg3, even in the presence of a 1M NaCl salt concentration
